Counter-ions that a name gives are not always drawn.
What follows are molecules tested on episomal HPV-16 DNA in W12-20850 cells (assay: W-12 cellular assay (hybrid capture quantification of episomal HPV-16 DNA)). Conditions: Human papillomavirus 16, 96 h; W12-20850 cells, four days incubation, episomal HPV-16 DNA by hybrid capture, inhibition relative to untreated control cells; read-out: W-12.
Assay type: cell-based, HPV16
Experimental: Compounds of the current invention are believed useful in the treatment and/or prophylaxis of conditions and diseases associated with HPV infection. Activity mediated through HPV was determined using the following W-12 cellular assay.
The W12 cell line used contains HPV16 DNA and was derived from a low-grade cervical dysplasia tissue by Margaret Stanley and subsequently clonally selected by Paul Lambert (University of Wisconsin). One of these clones, W12-20850, contains 1000 copies of episomal HPV16 DNA and was used in the cell-based assay. W12-20850 cells were routinely cultured with a gamma-irradiated (6000 rads) feeder layer of 3T3 cells. Assays, however, were run in the absence of a 3T3 feeder layer. W12-20850 and 3T3 cells were routinely split when they were sub-confluent. W12-20850 were grown in W12 Medium which is constituted of 25% DMEM (Gibco BRL, Cat # 12430-047), 75% F12 Media (Gibco BRL, Cat # 11765-021) and 2.5% FBS. The additives include […] Adenine (Sigma, Cat # A-9795), […] Hydrocortisone (Calbiochem, Cat # 386698); 5.0 mg/ml Bovine Insulin (Sigma, Cat # I-1882), 8.4 ng/ml cholera toxin (Fluka, Cat # 26694) and 10 ng/ml EGF (Invitrogen, Cat # 13247-051). 3T3 cells were grown in DMEM containing 10% FBS. Cell lines were incubated at 37° C., in the presence of 5% CO2.
For the assay, W12-20850 cells were seeded into a 96 well plate-containing compound. Plates were incubated at 37° C. in the presence of 5% CO2, for four days. On the fourth day, cells were lysed and the amount of episomal. HPV-16 DNA was quantified using a non-radioactive hybrid capture technique with HPV-16 specific capture and detection probes. The percent inhibition relative to untreated control cells' was then determined.
The hybrid capture assay is run in a 96 well plate format. Hybridization plates (Nunc Maxisorb Cat # 450320) were coated with a mixture of capture probe and ReactiBind solution for at least 4 hours and then washed with 0.2×SSC, 0.05% Tween20 (SSCT) prior to blocking with […] of 0.2 N NaOH, 1% Igepal, 10 mg/ml hsDNA for 6-8 hours. The hybridization was carried out by mixing 27 μl of lysed cells with 45 μl of denatured detection probe in 6M guanidine isothiocyanate. To prevent evaporation, 50 μl of mineral oil was added to each well. The plate was then heated to 90° C. for 6.5 minutes and the hybridization continued at 42° C. overnight. Assay plates were washed 6 times with SSC/T. Anti-digoxigenin HRP-conjugated Ab (Boehringer Mannheim 1207733, 1:5000) was incubated in the wells for 30 min at room temperature and washed with PBS/0.05% Tween-20. SuperSignal LBA substrate (Pierce Cat # 37070) was added, and chemiluminescence was measured using Wallac 1420 Victor plate reader.

Row | SMILES | IC50
1 | C[C@@H](N[C@@H]1CCc2c1[nH]c1ccc(Br)cc21)c1ccccc1 [Example 51, (3R)-7-Bromo-N-[(1R)-1-phenylethyl]-1,2,3,4-tetrahydrocyclooenta[b]indol-3-amine hydrochloride salt] | 0.122 µM
2 | c1ccc2c(c1)CC(NC1CCCc3c1[nH]c1ccccc31)C2 (stereo not shown) [Example 20, N-(2.3-Dihydro-1H-inden-2-yl)-2,3,4,9-tetrahydro-1H-carbazol-1-amine hydrochloride salt] | 3.3 µM
3 | CC(C)NC(=O)NC1CCCc2c1[nH]c1ccc(Br)cc21 (stereo not shown) [Example 65, N-(6-Bromo-2,3,4,9-tetrahydro-1H-carbazol-1-yl)-N′-isopropylurea] | 5 µM
4 | COC(=O)NC1CCCc2c1[nH]c1ccc(Br)cc21 (stereo not shown) [Example 66, Methyl 6-bromo-2,3,4,9-tetrahydro-1H-carbazol-1-ylcarbamate] | 0.165 µM
5 | C[C@@H](NC1CCCCc2c1[nH]c1ccc(Br)cc21)c1ccccc1 (stereo partly drawn) [Example 55, 2-Bromo-N-[(1R)-1-phenylethyl]-5,6,7,8,9,10-hexahydrocycloheota[b]indol-6-amine hydrochloride] | 1 µM
6 | CS(=O)(=O)NC1CCCc2c1[nH]c1ccc(Br)cc21 (stereo not shown) [Example 69, N-(6-Bromo-2,3,4,9-tetrahydro-1H-carbazol-1-yl)methanesulfonamide] | 2.3 µM
7 | C[C@@H](N[C@H]1CCc2c1[nH]c1ccc(Br)cc21)c1ccccc1 [Example 52, (3S)-7-Bromo-N-[(1R)-1-phenylethyl]-1,2,3,4-tetrahydrocyclobenta[b]indol-3-amine hydrochloride salt] | 29 µM
8 | Brc1ccc2[nH]c3c(c2c1)CCC[C@@H]3NC1Cc2ccccc2C1 [Example 28, (1S)-6-Bromo-N-(2.3-dihydro-1H-inden-2-yl)-2,3,4,9-tetrahydro-1H-carbazol-1-amine hydrochloride salt] | 3.7 µM
9 | Brc1ccc2[nH]c3c(c2c1)CCC3NCCc1ccccc1 (stereo not shown) [Example 50, 7-Bromo-N-(2-phenylethyl)-1,2,3,4-tetrahidrocyclopenta[b]indol-3-amine hydrochloride salt] | 11 µM
10 | Brc1ccc2c3c([nH]c2c1)C(NC1Cc2ccccc2C1)CCC3 (stereo not shown) [Example 63, 7-Bromo-N-(2.3-dihydro-1H-inden-2-yl)-2,3,4,9-tetrahydro-1H-carbazol-1-amine hydrochloride] | 3.9 µM
11 | CC(=O)NC1CCCc2c1[nH]c1ccc(Br)cc21 (stereo not shown) [Example 67, N-(6-Bromo-2,3,4,9-tetrahydro-1H-carbazol-1-yl)acetamide] | 13 µM

Same assay, conditions: Human papillomavirus 16, W12-20850, 96 h, read-out: W-12

Row | SMILES | IC50
12 | FC(F)(F)c1ccc2[nH]c3c(c2c1)CCCC3NCc1ccccc1 (stereo not shown) [Example 58, N-Benzyl-6-(trifluoromethyl)-2,3,4,9-tetrahydro-1H-carbazol-1-amine hydrochloride] | 1 µM
13 | Fc1ccc(CNC2CCCc3c2[nH]c2ccc(Br)cc32)cc1 (stereo not shown) [Example 57, 6-Bromo-N-(4-fluorobenzyl)-2,3,4,9-tetrahydro-1H-carbazol-1-amine hydrochloride] | 0.139 µM
14 | C[C@@H](NC1CCCc2c1[nH]c1ccccc21)c1ccccc1 (stereo partly drawn) [Example 18, N-[(1R)-1-Phenylethyl]-2,3,4,9-tetrahydro-1H-carbazol-1-amine hydrochloride salt] | 12.3 µM
15 | Cc1ccc2[nH]c3c(c2c1)CCCC3N[C@@H](C)c1ccccc1 (stereo partly drawn) [Example 45, 6-Methyl-N-[(1S)-1-phenylethyl]-2,3,4,9-tetrahydro-1H-carbazol-1-amine hydrochloride salt] | 7 µM
16 | Brc1ccc2[nH]c3c(c2c1)CCCC3NCCc1ccccc1 (stereo not shown) [Example 26, 6-Bromo-N-(2-phenylethyl)-2,3,4,9-tetrahydro-1H-carbazol-1-amine hydrochloride salt] | 0.41 µM
17 | COc1ccc2[nH]c3c(c2c1)CCCC3NCc1ccccc1 (stereo not shown) [Example 53, N-Benzyl-6-methoxy-2,3,4,9-tetrahydro-1H-carbazol-1-amine hydrochloride salt] | 7.6 µM
18 | COc1ccc(CNC2CCCc3c2[nH]c2ccccc32)cc1 (stereo not shown) [Example 16, N-(4-Methoxybenzyl)-2,3,4,9-tetrahydro-1H-carbazol-1-amine hydrochloride salt] | 1.5 µM
19 | C[C@H](NC1CCCc2c1[nH]c1ccc(Br)cc21)c1ccccc1 (stereo partly drawn) [Example 34, 6-Bromo-N-[(1S)-1-phenylethyl]-2,3,4,9-tetrahydro-1H-carbazol-1-amine hydrochloride salt] | 0.29 µM
20 | C[C@@H](NC1CCCc2c1[nH]c1ccc(Br)cc21)c1ccccc1 (stereo partly drawn) [Example 30, 6-Bromo-N-[(1R)-1-phenylethyl]-2,3,4,9-tetrahydro-1H-carbazol-1-amine hydrochloride salt] | < 0.2 µM
21 | Cc1ccc2[nH]c3c(c2c1)CCC[C@@H]3N[C@H](C)c1ccccc1 [Example 44, (1S)-6-Methyl-N-[(1R)-1-phenylethyl]-2,3,4,9-tetrahydro-1H-carbazol-1-amine hydrochloride salt] | 8.4 µM
22 | C[C@@H](NC1CCCc2c1[nH]c1ccc(C(F)(F)F)cc21)c1ccccc1 (stereo partly drawn) [Example 59, N-[(1R)-1-Phenylethyl]-6-(trifluoromethyl)-2,3,4,9-tetrahydro-1H-carbazol-1-amine hydrochloride] | 0.287 µM
23 | CN(CCc1ccccc1)C1CCCc2c1[nH]c1ccc(Br)cc21 (stereo not shown) [Example 37, 6-Bromo-N-methyl-N-(2-phenylethyl)-2,3,4,9-tetrahydro-1H-carbazol-1-amine hydrochloride salt] | 3 µM
24 | C[C@@H](NC1CCCc2c1[nH]c1cc(Br)ccc21)c1ccccc1 (stereo partly drawn) [Example 62, 7-Bromo-N-[(1R)-1-phenylethyl]-2,3,4,9-tetrahydro-1H-carbazol-1-amine hydrochloride] | 8 µM
25 | c1ccc(CCNC2CCCc3c2[nH]c2ccccc32)cc1 (stereo not shown) [Example 17, N-(2-Phenylethyl)-2,3,4,9-tetrahydro-1H-carbazol-1-amine hydrochloride salt] | 7.4 µM
26 | C[C@@H](N[C@@H]1CCCc2c1[nH]c1ccc(Br)cc21)c1ccccc1 [Example 31, (1R)-6-bromo-N-[(1R)-1-phenylethyl]-2,3,4,9-tetrahydro-1 H-carbazol-1-amine hydrochloride salt] | 0.03 µM
27 | Brc1ccc2[nH]c3c(c2c1)CCCC3NCc1ccccc1 (stereo not shown) [Example 29, N-Benzyl-6-bromo-2,3,4,9-tetrahydro-1H-carbazol-1-amine hydrochloride salt] | 0.115 µM
28 | Brc1ccc2[nH]c3c(c2c1)CCCC3NC(c1ccccc1)c1ccccc1 (stereo not shown) [Example 60, N-Benzhydryl-6-bromo-2,3,4,9-tetrahydro-1H-carbazol-1-amine hydrochloride] | 0.014 µM
29 | c1ccc2c3c([nH]c2c1)C(NC1CCCCC1)CCC3 (stereo not shown) [Example 19, N-Cyclohexyl-2,3,4,9-tetrahydro-1H-carbazol-1-amine hydrochloride salt] | 14.5 µM
30 | CC(C)(NC1CCCc2c1[nH]c1ccc(Br)cc21)c1ccccc1 (stereo not shown) [Example 33, 6-Bromo-N-(1-methyl-1-phenylethyl)-2,3,4,9-tetrahydro-1H-carbazol-1-amine hydrochloride salt] | 0.75 µM
31 | Cn1c2c(c3cc(Br)ccc31)CCCC2NCCc1ccccc1 (stereo not shown) [Example 38, 6-Bromo-9-methyl-N-(2-phenylethyl)-2,3,4,9-tetrahydro-1H-carbazol-1-amine hydrochloride salt] | 27 µM
32 | c1ccc(CNC2CCCc3c2[nH]c2ccccc32)cc1 (stereo not shown) [Example 15, N-Benzyl-2,3,4,9-tetrahydrocarbazole-1-amine hydrochloride salt] | 6.6 µM
33 | C[C@@H](CNC1CCCc2c1[nH]c1ccc(Br)cc21)c1ccccc1 (stereo partly drawn) [Example 39, 6-Bromo-N-[(2R)-2-phenylpropyl]-2,3,4,9-tetrahydro-1H-carbazol-1-amine hydrochloride salt] | 0.16 µM
34 | Brc1ccc2[nH]c3c(c2c1)CCC[C@H]3NC1Cc2ccccc2C1 [Example 27, (1R)-6-Bromo-N-(2,3-dihydro-1H-inden-2-yl)-2,3,4,9-tetrahydro-1H-carbazol-1-amine hydrochloride salt] | 0.057 µM

From US7622494B2, “Chemical compounds” (SmithKline Beecham Corporation, priority 2003, dated 2009)
